The assay concerns hepatocarcinoma cell line (HepG2). As to the kind of experiment: Oil Red O staining assay of triglyceride in free fatty acid-treated cells. Format: cell-based. The following applies: HepG2, 1 mM free fatty acid; 10, 30, 50 and 100 μM. As to the method: After the medium was removed from the Hepatocarcinoma cell line (HepG2), the cells were washed with 0.5 ml of PBS buffer solution, and the PBS buffer solution was completely removed therefrom. Then, 0.5 ml of 10% formalin was added thereto at room temperature and the resultant cells were incubated for 10 minutes.
After removing the formalin and adding 0.5 ml of fresh formalin, the cells were incubated for at least 1 hour (the cells can be stored in a formalin solution for several days before staining, and needs to be wrapped with an aluminum foil and parafilm to prevent the cells from being dried). […]
0.5 ml of an Oil Red O solution was added to the dried cells, which was then incubated at room temperature for 10 minutes. […] The debris of the staining solution was removed as much as possible, and images of the cells were obtained using a fluorescence microscope.
To the cells that had been completely dried, 0.5 ml of Oil Red O staining solution prepared by using 100% of isopropanol in a dry state was added. […] At this time, the resultant solution was mixed with a pipette up and down so that the cells were stained well with Oil Red O. Then, the mixture was transferred to a 96-well plate and the OD was measured at 500 nm. The OD value of 100% isopropanol was measured and used as a reference value (0 point).

Here are results for one molecule from patent US10617732B2, “Composition including extract of Dolichos lablab Linne as active ingredient for preventing or ameliorating non-alcoholic fatty liver disease” (KOREA INSTITUTE OF ORIENTAL MEDICINE, priority 2014, dated 2020).

SMILES strings stand for the structures.

Regarding `CC1(C)[C@@H](O)CC[C@]2(C)[C@H]3C(=O)C=C4[C@@H]5C[C@@](C)(C(=O)O)CC[C@]5(C)CC[C@@]4(C)[C@]3(C)CC[C@@H]12` [18 beta-glycyrrhetinic acid], the “content of triglyceride in Oil-red-O staining images” value is “the higher concentration of 18 beta-glycyrrhetinic acid, the smaller content of triglyceride”.
